Measurements taken from US20250034184A1, “QUATERNARY PHOSPHONIUM COMPOUNDS AND USES THEREOF” (Emory University, priority 2021, published 2025).

How the values were obtained:
[1] = system: hospital-acquired methicillin-resistant S. aureus (HA-MRSA; ATCC 33591); test: microbe, parasite or virus in culture; assay type: cell-based
[2] = system: Enterococcus faecalis (OG1RF); test: microbe, parasite or virus in culture; assay type: cell-based
[3] = system: Escherichia coli (MC4100); test: microbe, parasite or virus in culture; assay type: cell-based
[4] = system: Pseudomonas aeruginosa (PAO1); test: microbe, parasite or virus in culture; assay type: cell-based
[5] = system: methicillin-susceptible S. aureus (SH1000); test: microbe, parasite or virus in culture; assay type: cell-based
[6] = system: community-acquired methicillin-resistant S. aureus (CA-MRSA; USA 300-0114); test: microbe, parasite or virus in culture; assay type: cell-based

Structure (SMILES) | Minimum Inhibitory Concentration HA-MRSA [1] | Minimum Inhibitory Concentration E. faecalis [2] | Minimum Inhibitory Concentration E. coli [3] | Minimum Inhibitory Concentration Pa [4] | Minimum Inhibitory Concentration MSSA [5] | Lys20 (red blood cell (RBC)) | Minimum Inhibitory Concentration CA-MRSA [6] | fold increase in activity compared to its 12-carbon analog [3] | fold increase in activity compared to BAC and CPC [2] | fold increase in activity compared to BAC and CPC [4]
CCCCCCCCCC[P+](CC[P+](CCCCCCCCCC)(c1ccccc1)c1ccccc1)(CC[P+](CCCCCCCCCC)(c1ccccc1)c1ccccc1)CC[P+](CCCCCCCCCC)(c1ccccc1)c1ccccc1 [4P-10,10,10,10, ((decylphosphoniotriyl)tris(ethane-2,1-diyl))tris(decyldiphenylphosphonium)] | 32 µM | 250 µM | 250 µM | >250 µM | 16 µM | 8 µM | 32 µM | – | – | –
CCCCCCCCCCC[P+](CC[P+](CCCCCCCCCCC)(c1ccccc1)c1ccccc1)(CC[P+](CCCCCCCCCCC)(c1ccccc1)c1ccccc1)CC[P+](CCCCCCCCCCC)(c1ccccc1)c1ccccc1 [4P-11,11,11,11, ((undecylphosphoniotriyl)tris(ethane-2,1-diyl))tris(diphenyl(undecyl)phosphonium)] | 125 µM | 125 µM | 125 µM | >250 µM | 16 µM | 4 µM | 32 µM | – | – | –
CCCCCCCCCCCC[P+](CC[P+](CCCCCCCCCCCC)(c1ccccc1)c1ccccc1)(CC[P+](CCCCCCCCCCCC)(c1ccccc1)c1ccccc1)CC[P+](CCCCCCCCCCCC)(c1ccccc1)c1ccccc1 [4P-12,12,12,12, ((dodecylphosphoniotriyl)tris(ethane-2,1-diyl))tris(dodecyldiphenylphosphonium)] | 63 µM | 250 µM | 250 µM | >250 µM | 16 µM | 4 µM | 16 µM | – | – | –
CCCCCCCCCCCCCCCC[n+]1ccccc1 [CPC, cetylpyridinium chloride, reference compound] | – | – | – | – | – | 4 µM | – | – | – | –
CCCCCCCC[P+](CC[P+](CCCCCCCC)(c1ccccc1)c1ccccc1)(CC[P+](CCCCCCCC)(c1ccccc1)c1ccccc1)c1ccccc1 [P2P2P-8,8,8, ((octyl(phenyl)phosphoniodiyl)bis(ethane-2,1-diyl))bis(octyldiphenylphosphonium)] | 2 µM | 250 µM | 250 µM | >250 µM | 2 µM | 16 µM | 1 µM | – | – | –
CCCCCCCCCC[P+](CC[P+](CCCCCCCCCC)(c1ccccc1)c1ccccc1)(CC[P+](CCCCCCCCCC)(c1ccccc1)c1ccccc1)c1ccccc1 [P2P2P-10,10,10, ((decyl(phenyl)phosphoniodiyl)bis(ethane-2,1-diyl))bis(decyldiphenylphosphonium)] | 8 µM | 250 µM | 32 µM | >250 µM | 2 µM | 2 µM | 2 µM | – | – | –
CCCCCCCCCCC[P+](CC[P+](CCCCCCCCCCC)(c1ccccc1)c1ccccc1)(CC[P+](CCCCCCCCCCC)(c1ccccc1)c1ccccc1)c1ccccc1 [P2P2P-11,11,11, ((phenyl(undecyl)phosphoniodiyl)bis(ethane-2,1-diyl))bis(diphenyl(undecyl)phosphonium)] | 4 µM | 63 µM | 63 µM | >250 µM | 2 µM | 1 µM | 4 µM | – | – | –
CCCCCCCCCCCC[P+](CC[P+](CCCCCCCCCCCC)(c1ccccc1)c1ccccc1)(CC[P+](CCCCCCCCCCCC)(c1ccccc1)c1ccccc1)c1ccccc1 [P2P2P-12,12,12, ((dodecyl(phenyl)phosphoniodiyl)bis(ethane-2,1-diyl))bis(dodecyldiphenylphosphonium)] | 8 µM | 125 µM | 125 µM | >250 µM | 2 µM | 1 µM | 4 µM | – | – | –
CCCCCCCCCCCCC[P+](CC[P+](CCCCCCCCCCCCC)(c1ccccc1)c1ccccc1)(CC[P+](CCCCCCCCCCCCC)(c1ccccc1)c1ccccc1)c1ccccc1 [P2P2P-13,13,13, ((phenyl(tridecyl)phosphoniodiyl)bis(ethane-2,1-diyl))bis(diphenyl(tridecyl)phosphonium)] | 16 µM | 125 µM | 125 µM | >250 µM | 2 µM | 2 µM | 4 µM | – | – | –
CCCCCCCC[P+](c1ccccc1)(c1ccccc1)c1ccccc1 [TPP-8, octyltriphenylphosphonium] | 125 µM | >250 µM | >250 µM | >250 µM | 4 µM | 63 µM | 4 µM | – | – | –
CCCCCCCCCC[P+](c1ccccc1)(c1ccccc1)c1ccccc1 [TPP-10, decyltriphenylphosphonium] | 8 µM | 250 µM | 250 µM | 250 µM | 1 µM | 16 µM | 2 µM | – | – | –
CCCCCCCCCCC[P+](c1ccccc1)(c1ccccc1)c1ccccc1 [TPP-11, triphenyl(undecyl)phosphonium] | 4 µM | 125 µM | 125 µM | 250 µM | 1 µM | 16 µM | 1 µM | – | – | –
CCCCCCCCCCCC[P+](c1ccccc1)(c1ccccc1)c1ccccc1 [TPP-12, dodecyltriphenylphosphonium] | 2 µM | 63 µM | 250 µM | 63 µM | 0.5 µM | 8 µM | 1 µM | – | – | –
CCCCCCCCCCCCC[P+](c1ccccc1)(c1ccccc1)c1ccccc1 [TPP-13, triphenyl(tridecyl)phosphonium] | 2 µM | 16 µM | 4 µM | 32 µM | 1 µM | 4 µM | 1 µM | ~63 fold | – | –
CCCCCCCCCCCCCC[P+](c1ccccc1)(c1ccccc1)c1ccccc1 [TPP-14, triphenyl(tetradecyl)phosphonium] | 2 µM | 8 µM | 16 µM | 16 µM | 2 µM | 4 µM | 2 µM | – | – | –
CCCCCCCCCCCCCCCC[P+](c1ccccc1)(c1ccccc1)c1ccccc1 [TPP-16, hexadecyltriphenylphosphonium] | 4 µM | 4 µM | 16 µM | 16 µM | 2 µM | 4 µM | 2 µM | – | ~63 fold | ~16 fold
